According to patent US7038021B2, “Anti-dioxins monoclonal antibody suitable for assaying dioxins in environment and hybridoma producing the same” (priority 2004, dated 2006):
≈ marks a conversion by molar mass, not a printed value.

Assays:
[1] = WHO-TEF, toxicity of 2,3,7,8-TCDD taken as 1; cited from earlier work
[2] = tested on: monoclonal antibody Dx02-I-0; test: Cross-reactivity of monoclonal antibody Dx02-I-0 by indirect competitive assay (ELISA, II-1 immobilized); format: binding, mouse; conditions: for IC50: indirect competitive assay, immobilized II-1, 20% DMSO and 0.01% Triton-X100, room temperature 10 to 30 minutes; for Cross-reactivity: obtained from IC50 values, 1,2,3,7,8-PeCDF = 100; for reactivity (cross-reactivity) of the antibody: assuming the reactivity with 1,2,3,7,8-PeCDF is 100%
Experimental: According to the method used for determination of the antibody titer, antigen II-1 or II-2 was immobilized onto wells of a microtiter plate and the wells were washed. A solution (300 μl) of Block Ace 4-fold diluted with deionized water was then added to the wells, and the wells were blocked by allowing it to stand at room temperature for 2 hours. The wells were washed three times with the washing solution (300 μl). The supernatant (25 μl) of the culture containing a primary antibody as well as a solution (25 μl) of various concentrations of a phenoxathiin derivative (I-1 or I-2), which is a compound for screening having a structure similar to that of dioxins and having a reduced toxicity, in 20% DMSO and 0.01% Triton-X100, or a solution (25 μl) of various concentrations of dioxins in 20% DMSO and 0.01% Triton-X100, or a solution (25 μl) containing neither the phenoxathiin derivatives nor the dioxins in 20% DMSO and 0.01% Triton-X100 which serves as a control were then added to the wells and mixed in the wells. The wells were allowed to stand at room temperature for 10 to 30 minutes to effect an antigen-antibody reaction.
The wells were washed three times with the washing solution (300 μl). Then, in order to detect the primary antibody which was bound to II-1 or II-2 immobilized onto the plate, a solution (50 μl) of a horseradish peroxidase-labeled anti-mouse IgG (recognizing γ-chain) prepared by 3000-fold diluting with a solution of Block Ace 10-fold diluted with deionized water was added to the wells as a solution of a secondary antibody, and reacted at room temperature for one our. After the wells were again washed three times with the washing solution (300 μl), a TMB solution was added to the wells, and a coloration reaction was effected at room temperature. After 5 to 15 minutes, the reaction was terminated by adding 1 M phosphoric acid (50 μl), and the absorbance at 450 nm was immediately measured using a microplate reader. The ratio (B/B0) of an absorbance value (B) in the well to which one of phenoxathiin derivatives or dioxins was added, to an absorbance value (control OD; B0) in the well to which only a solution of 20% DMSO and 0.01% Triton-X100 was added but neither the phenoxathiin derivatives nor the dioxins were added, was calculated to evaluate the reactivity of the primary antibody. A hybridoma in the well in which a continuously high production of an antibody having a high binding activity against the antigens was recognized was selected, expanded, and cloned by a limiting dilution method.
Using monoclonal antibody Dx02-I-0, the cross-reactivity with 17 kinds of dioxins each having a toxicity value and 12 kinds of coplanar PCBs was evaluated by an indirect competitive assay. II-1 (50 μl) was added to wells in a microtiter plate, and the wells were allowed to stand at room temperature for one hour and then washed. After the wells were blocked, various concentrations of one of dioxins (25 μl) dissolved in 20% DMSO and 0.01% Triton-X100 or a solution (25 μl) of 20% DMSO and 0.01% Triton-X100 not containing any dioxin which serves as a control as well as a solution (25 μl) of the antibody diluted with 0.01 to 0.1% BSA were added to the wells in the plate, and reacted at room temperature for 10 to 30 minutes.
Then, a coloration reaction was effected using a secondary antibody against the antibody bound to the solid phase, i.e. a peroxidase-labeled anti-mouse IgG antibody (recognizing γ-chain) as well as TMB. After the enzyme reaction was terminated, the absorbance at 450 nm was immediately measured. The B/B0 values were plotted for various dioxins, IC50 values were calculated from the resulting figures, and the cross-reactivity of the antibody was obtained from these values (Table 3).

[3] = tested on: antibody of non-patent reference 2; conditions: assuming the reactivity with 1,2,3,7,8-PeCDF is 100%; cited from earlier work
[4] = tested on: monoclonal antibody Dx02-I-0; test: Standard curve by indirect competitive assay, inhibition by 2,3,4,7,8-PeCDF; format: binding, mouse; conditions: purified antibody Dx02-I-0, immobilized II-1, FIG. 1
Experimental: II-1 was immobilized onto a microtiter plate at room temperature for one hour, and the plate was washed three Limes with the washing solution (300 μl). A solution (300 μl) of Block Ace prepared by 4-fold diluting with deionized water was then added to the wells, and the wells were blocked at room temperature for 2 hours. The wells were washed three times with the washing solution. […]
The wells were then washed, and a secondary antibody, i.e. a solution (50 μl) of a horseradish peroxidase-labeled anti-mouse IgG (recognizing γ-chain) prepared by 3000-fold diluting with a solution of Block Ace 10-fold diluted with deionized water was added to the wells, and reacted at room temperature for one hour. […] After 5 to 15 minutes, the reaction was terminated by adding 1 M phosphoric acid (50 μl), and the absorbance at 450 nm was immediately measured using a microplate reader. The ratio (B/B0) of an absorbance value (B) in the well to which one of dioxins was added, to control OD (B0) was calculated, and the calculated values were plotted against the concentrations of the added dioxin with single logarithm to obtain a typical sigmoid curve (FIG. 1).

Structure (SMILES) | TEF [1] | IC50 [2] [µg/mL] | Cross-reactivity [2] | Cross-reactivity [3] [%] | reactivity (cross-reactivity) of the antibody [2] [%] | detectable concentration in the assay system [4] [ng/mL]
Clc1cc2c(c(Cl)c1Cl)Oc1c(Cl)c(Cl)c(Cl)c(Cl)c1O2 [1,2,3,4,6,7,8-HpCDD] | 0.01 | >0.1 | <1 |  |  | 
Clc1cc2oc3cc(Cl)c(Cl)cc3c2cc1Cl [2,3,7,8-TeCDF] | 0.1 | 0.0123 (≈ 0.0402 µM) | 7 |  |  | 
Clc1cc2oc3cc(Cl)c(Cl)c(Cl)c3c2cc1Cl [1,2,3,7,8-PeCDF] | 0.05 | 0.000915 (≈ 0.00269 µM) | 100 |  |  | 
Clc1c(Cl)c(Cl)c2c(oc3c(Cl)c(Cl)c(Cl)c(Cl)c32)c1Cl [OCDF] | 0.0001 | >0.1 | <1 |  |  | 
Clc1cc2c(cc1Cl)Oc1c(Cl)c(Cl)c(Cl)c(Cl)c1O2 [1,2,3,4,7,8-HxCDD] | 0.1 | >0.1 | <1 |  |  | 
Clc1cc2c(oc3c(Cl)c(Cl)c(Cl)cc32)c(Cl)c1Cl [2,3,4,6,7,8-HxCDF] | 0.1 | 0.000989 (≈ 0.00264 µM) | 93 | 43.8 | 93 | 
Clc1ccc(-c2cc(Cl)c(Cl)c(Cl)c2Cl)cc1 [2,3,4,4′,5-PeCB] | 0.0005 | >0.1 | <1 |  |  | 
Clc1cc2c(c(Cl)c1Cl)Oc1c(cc(Cl)c(Cl)c1Cl)O2 [1,2,3,7,8,9-HxCDD] | 0.1 | 0.00106 (≈ 0.00271 µM) | 86 | 39.8 | 86 | 
Clc1cc2c(oc3cc(Cl)c(Cl)c(Cl)c32)c(Cl)c1Cl [1,2,3,6,7,8-HxCDF] | 0.1 | >0.1 | <1 | 36.6 |  | 
Clc1cc2c(cc1Cl)Oc1c(cc(Cl)c(Cl)c1Cl)O2 [1,2,3,7,8-PeCDD] | 1 | 0.0296 (≈ 0.083 µM) | 3 |  |  | 
Clc1ccc(-c2cc(Cl)c(Cl)cc2Cl)cc1Cl [2,3′,4,4′,5-PeCB] | 0.0001 | >0.1 | <1 |  |  | 
Clc1cc2c(cc1Cl)Oc1cc(Cl)c(Cl)cc1O2 [2,3,7,8-TeCDD, 2,3,7,8-tetrachlorodibenzo-p-dioxin] | 1 | 0.0072 (≈ 0.0224 µM) | 13 |  | 13 | 
Clc1c(Cl)c(Cl)c2c(c1Cl)Oc1c(Cl)c(Cl)c(Cl)c(Cl)c1O2 [OCDD] | 0.0001 | >0.1 | <1 |  |  | 
Clc1ccc(-c2cc(Cl)c(Cl)c(Cl)c2Cl)cc1Cl [2,3,3′,4,4′,5-HxCB] | 0.0005 | >0.1 | <1 |  |  | 
Clc1cc2oc3c(Cl)c(Cl)c(Cl)cc3c2cc1Cl [2,3,4,7,8-PeCDF, 2,3,4,7,8-pentachlorodibenzofuran] |  | 0.00586 (≈ 0.0172 µM) | 16 |  | 16 | ≤ 1
Clc1cc2c(oc3c(Cl)c(Cl)c(Cl)c(Cl)c32)c(Cl)c1Cl [1,2,3,4,6,7,8-HpCDF] | 0.01 | >0.1 | <1 |  |  | 
Clc1cc(-c2cc(Cl)c(Cl)c(Cl)c2)cc(Cl)c1Cl [3,3′,4,4′,5,5′-HxCB] | 0.01 | 0.0629 (≈ 0.174 µM) | 1 |  |  | 
Clc1cc(-c2cc(Cl)c(Cl)c(Cl)c2Cl)cc(Cl)c1Cl [2,3,3′,4,4′,5,5′-HpCB] | 0.0001 | >0.1 | <1 |  |  | 
Clc1ccc(-c2cc(Cl)c(Cl)c(Cl)c2)cc1 [3,4,4′,5-TeCB] | 0.0001 | >0.1 | <1 |  |  | 
Clc1ccc(-c2cc(Cl)c(Cl)c(Cl)c2)c(Cl)c1 [2′,3,4,4′,5-PeCB] | 0.0001 | >0.1 | <1 |  |  | 
Clc1cc2oc3c(Cl)c(Cl)c(Cl)c(Cl)c3c2c(Cl)c1Cl [1,2,3,4,7,8,9-HpCDF] | 0.01 | 0.00267 (≈ 0.00652 µM) | 34 |  | 34 | 
Clc1ccc(-c2ccc(Cl)c(Cl)c2Cl)cc1Cl [2,3,3′,4,4′-PeCB] | 0.0001 | >0.1 | <1 |  |  | 
Clc1cc(Cl)c(-c2cc(Cl)c(Cl)c(Cl)c2)cc1Cl [2,3′,4,4′,5,5′-HxCB] | 0.00001 | >0.1 | <1 |  |  | 
Clc1cc2oc3c(Cl)c(Cl)c(Cl)c(Cl)c3c2cc1Cl [1,2,3,4,7,8-HxCDF] | 0.1 | >0.1 | <1 | 45.9 |  | 
Clc1cc2c(c(Cl)c1Cl)Oc1cc(Cl)c(Cl)c(Cl)c1O2 [1,2,3,6,7,8-HxCDD] | 0.1 | 0.000984 (≈ 0.00252 µM) | 93 |  | 93 | 
Clc1cc2oc3cc(Cl)c(Cl)c(Cl)c3c2c(Cl)c1Cl [1,2,3,7,8,9-HxCDF] | 0.1 | 0.0355 (≈ 0.0947 µM) | 3 | 42.7 |  | 
Clc1ccc(-c2ccc(Cl)c(Cl)c2)cc1Cl [3,3′,4,4′-TeCB] | 0.0001 | >0.1 | <1 |  |  | 
Clc1ccc(-c2cc(Cl)c(Cl)c(Cl)c2)cc1Cl [3,3′,4,4′,5-PeCB] | 0.1 | 0.0537 (≈ 0.165 µM) | 2 |  |  | 
Clc1cc(-c2ccc(Cl)c(Cl)c2Cl)cc(Cl)c1Cl [2,3,3′,4,4′,5′-HxCB] | 0.0005 | >0.1 | <1 |  |  | 
